According to US20050165047A1, “Crystalline fumarate salts of 1-azabicyclo[2.2.2]oct substituted furo[2,3-c]pyridinyl carboxamide and compositions and preparations thereof” (Pfizer Inc, priority 2002, published 2005):

Test: Moisture sorption by DMSG on a controlled atmosphere microbalance
Assay type: physicochemical
Details: 25° C.
Method: The sorption of water by the solid lattice at a given relative humidity (RH) was measured by DMSG on a controlled atmosphere microbalance. Scans were carried out at 25° C. from 36% to 0% RH then ramped to 90% RH, and back down to 0% RH with a step size of 3% RH. A sample size of 8 to 14 mg was used. At each step, the balance was considered equilibrated when the mass change was less than 0.01 mg for five consecutive scans. There were 120 seconds between each scan.
Table 3 provides the moisture sorption data at 25° C. for Crystal Forms Ia and Ib of N-[1-azabicyclo[2.2.2]oct-3-yl]furo[2,3-c]pyridine-5-carboxamide.

**Q.** Which results are given for `O=C(N[C@H]1CN2CCC1CC2)c1cc2ccoc2cn1` [Crystal Form Ia, N-[(3R)-1-azabicyclo[2.2.2]oct-3-yl]furo[2,3-c]pyridine-5-carboxamide]?
**A.** % dMass (RH 0%, 0-90% RH): 0.006227%; % dMass (RH 0%, 36-0% RH): 0.008896%; % dMass (RH 0.1%, 36-0% RH): 0.01245%; % dMass (RH 0.36%, 36-0% RH): 0.01156%; % dMass (RH 1.3%, 0-90% RH): 0.01512%; % dMass (RH 1.6%, 36-0% RH): 0.02224%; % dMass (RH 4.3%, 0-90% RH): 0.0258%; % dMass (RH 4.74%, 36-0% RH): 0.0338%; % dMass (RH 7.1%, 0-90% RH): 0.03736%; % dMass (RH 7.98%, 36-0% RH): 0.0427%; % dMass (RH 10.1%, 0-90% RH): 0.04448%; % dMass (RH 10.8%, 36-0% RH): 0.04893%; % dMass (RH 13.14%, 0-90% RH): 0.05249%; % dMass (RH 13.96%, 36-0% RH): 0.05515%; % dMass (RH 16.18%, 0-90% RH): 0.05782%; % dMass (RH 17.1%, 36-0% RH): 0.06227%; % dMass (RH 19.28%, 0-90% RH): 0.06227%; % dMass (RH 19.94%, 36-0% RH): 0.07028%; % dMass (RH 22.56%, 0-90% RH): 0.07295%; % dMass (RH 23.18%, 36-0% RH): 0.07739%; % dMass (RH 25.72%, 0-90% RH): 0.07828%; % dMass (RH 28.68%, 0-90% RH): 0.08362%; % dMass (RH 31.96%, 0-90% RH): 0.09341%; % dMass (RH 35.18%, 0-90% RH): 0.1005%; % dMass (RH 38.16%, 0-90% RH): 0.1076%; % dMass (RH 41.24%, 0-90% RH): 0.1139%; % dMass (RH 44.36%, 0-90% RH): 0.1165%; % dMass (RH 47.56%, 0-90% RH): 0.1237%; % dMass (RH 50.7%, 0-90% RH): 0.1334%; % dMass (RH 53.86%, 0-90% RH): 0.1423%; % dMass (RH 56.98%, 0-90% RH): 0.153%; % dMass (RH 60.24%, 0-90% RH): 0.1646%; % dMass (RH 63.9%, 0-90% RH): 0.1841%; % dMass (RH 66.22%, 90-0% RH): 0.2046%; % dMass (RH 66.66%, 0-90% RH): 0.2028%; % dMass (RH 69.18%, 90-0% RH): 0.234%; % dMass (RH 69.48%, 0-90% RH): 0.2251%; % dMass (RH 72.34%, 90-0% RH): 0.3194%; % dMass (RH 72.76%, 0-90% RH): 0.2562%; % dMass (RH 75.26%, 90-0% RH): 0.3629%; % dMass (RH 75.68%, 0-90% RH): 0.2936%; % dMass (RH 77.96%, 90-0% RH): 0.4074%; % dMass (RH 78.42%, 0-90% RH): 0.3371%; % dMass (RH 80.84%, 90-0% RH): 0.4706%; % dMass (RH 81.9%, 0-90% RH): 0.4163%; % dMass (RH 83.48%, 90-0% RH): 0.5569%; % dMass (RH 85.3%, 0-90% RH): 0.6218%; % dMass (RH 85.94%, 90-0% RH): 0.693%; % dMass (RH 88.38%, 0-90% RH): 0.9643%; % dMass (RH 88.42%, 90-0% RH): 0.9723%; hygroscopicity compared with Crystal Form Ib (above 74% relative humidity (RH)): less hygroscopic

**Q.** Which results are given for `O=C(N[C@H]1CN2CCC1CC2)c1cc2ccoc2cn1` [Crystal Form Ib, N-[(3R)-1-azabicyclo[2.2.2]oct-3-yl]furo[2,3-c]pyridine-5-carboxamide]?
**A.** % dMass (RH 0%, 36-0% RH): 0.1164%; % dMass (RH 0.24%, 36-0% RH): 0.1225%; % dMass (RH 2.62%, 0-90% RH): 0.1479%; % dMass (RH 3.16%, 36-0% RH): 0.1628%; % dMass (RH 5.84%, 0-90% RH): 0.1768%; % dMass (RH 6.36%, 36-0% RH): 0.1899%; % dMass (RH 8.98%, 0-90% RH): 0.2048%; % dMass (RH 9.74%, 36-0% RH): 0.2197%; % dMass (RH 12.2%, 0-90% RH): 0.2293%; % dMass (RH 12.78%, 36-0% RH): 0.2451%; % dMass (RH 15.34%, 0-90% RH): 0.2547%; % dMass (RH 15.78%, 36-0% RH): 0.2678%; % dMass (RH 18.46%, 0-90% RH): 0.281%; % dMass (RH 18.8%, 36-0% RH): 0.2932%; % dMass (RH 21.42%, 0-90% RH): 0.3037%; % dMass (RH 21.88%, 36-0% RH): 0.3195%; % dMass (RH 24.66%, 0-90% RH): 0.3335%; % dMass (RH 25.1%, 36-0% RH): 0.3466%; % dMass (RH 27.74%, 0-90% RH): 0.3606%; % dMass (RH 28.16%, 36-0% RH): 0.3772%; % dMass (RH 30.82%, 0-90% RH): 0.3921%; % dMass (RH 33.92%, 0-90% RH): 0.4245%; % dMass (RH 36.96%, 0-90% RH): 0.4586%; % dMass (RH 39.9%, 0-90% RH): 0.491%; % dMass (RH 43.18%, 0-90% RH): 0.5348%; % dMass (RH 46.14%, 0-90% RH): 0.5768%; % dMass (RH 49.16%, 0-90% RH): 0.6302%; % dMass (RH 52.12%, 0-90% RH): 0.6871%; % dMass (RH 55.1%, 0-90% RH): 0.7501%; % dMass (RH 58.08%, 0-90% RH): 0.8219%; % dMass (RH 61.08%, 0-90% RH): 0.9068%; % dMass (RH 64.04%, 0-90% RH): 1.002%; % dMass (RH 67.02%, 0-90% RH): 1.124%; % dMass (RH 68.62%, 90-0% RH): 26.01%; % dMass (RH 70%, 0-90% RH): 1.281%; % dMass (RH 71.48%, 90-0% RH): 26.27%; % dMass (RH 72.9%, 0-90% RH): 1.505%; % dMass (RH 74.3%, 90-0% RH): 26.58%; % dMass (RH 75.9%, 0-90% RH): 1.925%; % dMass (RH 77.1%, 90-0% RH): 26.92%; % dMass (RH 79.2%, 0-90% RH): 26.93%; % dMass (RH 79.88%, 90-0% RH): 27.36%; % dMass (RH 82%, 0-90% RH): 27.4%; % dMass (RH 82.5%, 90-0% RH): 28%; % dMass (RH 85.04%, 0-90% RH): 28.18%; % dMass (RH 85.12%, 90-0% RH): 30.2%; % dMass (RH 87.82%, 0-90% RH): 30.29%; % dMass (RH 87.9%, 90-0% RH): 32.21%; % dMass (RH 90.7%, 0-90% RH): 38.78%; % dMass (RH 90.7%, 90-0% RH): 38.8%
